Measured values from ChEMBL document CHEMBL4028827, “Discovery of indazole aldosterone synthase (CYP11B2) inhibitors as potential treatments for hypertension” (Bioorg Med Chem Lett, 2017).
pIC50: −log10 of the molar value.

Legend:
[1] = molecular target: T1, Steroid 21-hydroxylase (Homo sapiens, UniProt P08686); test: Inhibition of human CYP21 expressed in African green monkey COS7 cells using […] as substrate preincubated for 1 hr followed by substrate addition measured for 3 hrs by HTRF assay; type: cell-based
T1 sequence (P08686 whole entry): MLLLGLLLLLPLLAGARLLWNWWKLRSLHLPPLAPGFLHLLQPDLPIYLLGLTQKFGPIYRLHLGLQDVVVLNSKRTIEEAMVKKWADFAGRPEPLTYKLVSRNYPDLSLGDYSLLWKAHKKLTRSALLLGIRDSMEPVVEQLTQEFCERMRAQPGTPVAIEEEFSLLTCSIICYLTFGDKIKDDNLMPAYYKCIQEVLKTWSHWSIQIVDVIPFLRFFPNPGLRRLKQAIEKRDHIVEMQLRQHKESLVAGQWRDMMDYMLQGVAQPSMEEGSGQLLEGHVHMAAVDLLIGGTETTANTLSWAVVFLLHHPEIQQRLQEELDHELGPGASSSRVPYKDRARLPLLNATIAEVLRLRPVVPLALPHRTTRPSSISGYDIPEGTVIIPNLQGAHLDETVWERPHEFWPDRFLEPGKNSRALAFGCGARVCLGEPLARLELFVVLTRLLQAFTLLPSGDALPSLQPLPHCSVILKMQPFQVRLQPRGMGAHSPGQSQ

[2] = molecular target: T2, Steroid 17-alpha-hydroxylase/17,20 lyase (Homo sapiens, UniProt P05093); test: Inhibition of human CYP17 expressed in African green monkey COS7 cells using 17-hydroxypregnenolone as substrate preincubated for 1 hr followed by substrate addition measured after 3 hrs by EIA; type: cell-based
T2 sequence (P05093 whole entry): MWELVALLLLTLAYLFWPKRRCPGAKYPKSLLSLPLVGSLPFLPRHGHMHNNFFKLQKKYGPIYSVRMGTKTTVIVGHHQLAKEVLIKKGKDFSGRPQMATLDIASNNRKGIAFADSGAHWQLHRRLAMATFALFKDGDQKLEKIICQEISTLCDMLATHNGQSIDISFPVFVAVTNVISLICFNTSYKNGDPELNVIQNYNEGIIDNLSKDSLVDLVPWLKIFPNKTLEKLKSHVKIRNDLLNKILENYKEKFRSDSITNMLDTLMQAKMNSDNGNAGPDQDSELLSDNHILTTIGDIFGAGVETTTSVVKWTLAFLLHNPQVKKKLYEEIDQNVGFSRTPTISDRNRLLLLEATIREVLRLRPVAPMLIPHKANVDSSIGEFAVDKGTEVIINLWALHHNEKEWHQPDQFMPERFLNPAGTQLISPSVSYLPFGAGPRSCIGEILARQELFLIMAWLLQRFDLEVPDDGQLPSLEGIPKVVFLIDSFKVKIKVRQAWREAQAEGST

[3] = molecular target: Cytochrome P450 3A4 (Homo sapiens, UniProt P08684); test: Inhibition of hepatic CYP3A4 (unknown origin); type: ADME
Sequence of Cytochrome P450 3A4 (P08684 whole entry): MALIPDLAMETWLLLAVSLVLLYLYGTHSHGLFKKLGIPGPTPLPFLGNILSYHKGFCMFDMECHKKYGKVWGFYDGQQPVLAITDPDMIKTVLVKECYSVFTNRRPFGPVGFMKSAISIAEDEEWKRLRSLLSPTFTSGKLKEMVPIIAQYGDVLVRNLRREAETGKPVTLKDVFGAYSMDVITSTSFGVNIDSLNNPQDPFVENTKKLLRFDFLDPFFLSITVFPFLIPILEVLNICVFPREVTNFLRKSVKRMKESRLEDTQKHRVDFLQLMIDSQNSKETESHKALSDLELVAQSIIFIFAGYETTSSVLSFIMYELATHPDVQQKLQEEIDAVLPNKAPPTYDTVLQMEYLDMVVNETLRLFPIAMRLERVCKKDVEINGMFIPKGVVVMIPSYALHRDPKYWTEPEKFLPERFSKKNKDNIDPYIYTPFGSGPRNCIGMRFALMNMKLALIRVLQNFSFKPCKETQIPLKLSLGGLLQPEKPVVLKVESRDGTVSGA

[4] = Selectivity ratio of IC50 for human CYP11B1-8C7 expressed in Chinese hamster V79 cells to IC50 for human CYP11B2-CLE9 expressed in Chinese hamster V79 cells
[5] = molecular target: T3, Cytochrome P450 11B2, mitochondrial (Rattus norvegicus, UniProt P30099); test: Inhibition of rat CYP11B2-1F4 expressed in Chinese hamster V79 cells using 11-deoxycorticosterone as substrate preincubated for 1 hr followed by substrate addition measured for 3 hrs by HTRF assay; type: cell-based
T3 sequence (P30099 whole entry): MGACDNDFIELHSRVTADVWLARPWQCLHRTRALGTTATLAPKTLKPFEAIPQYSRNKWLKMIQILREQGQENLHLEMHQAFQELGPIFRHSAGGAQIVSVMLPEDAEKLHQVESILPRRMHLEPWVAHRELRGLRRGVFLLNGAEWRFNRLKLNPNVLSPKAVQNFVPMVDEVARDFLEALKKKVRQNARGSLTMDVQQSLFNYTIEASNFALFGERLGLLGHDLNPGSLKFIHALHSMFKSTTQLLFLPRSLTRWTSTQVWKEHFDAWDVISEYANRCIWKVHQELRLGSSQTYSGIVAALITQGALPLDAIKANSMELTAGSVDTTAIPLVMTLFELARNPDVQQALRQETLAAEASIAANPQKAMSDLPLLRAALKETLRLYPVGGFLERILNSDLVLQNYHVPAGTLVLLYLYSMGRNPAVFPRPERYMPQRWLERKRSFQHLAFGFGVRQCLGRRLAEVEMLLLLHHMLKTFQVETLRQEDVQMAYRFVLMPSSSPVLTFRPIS

[6] = Volume of distribution in Sprague-Dawley rat at 1 mg/kg, iv or 2 mg/kg, po administered via gavage by LC-MS/MS analysis; type: ADME, organism-based; conditions: in vivo
[7] = Selectivity ratio of IC50 for hepatic CYP2D6 (unknown origin) to IC50 for human CYP11B2-CLE9 expressed in Chinese hamster V79 cells
[8] = molecular target: Cytochrome P450 2D6 (Homo sapiens, UniProt P10635); test: Inhibition of hepatic CYP2D6 (unknown origin); type: ADME
Sequence of Cytochrome P450 2D6 (P10635 whole entry): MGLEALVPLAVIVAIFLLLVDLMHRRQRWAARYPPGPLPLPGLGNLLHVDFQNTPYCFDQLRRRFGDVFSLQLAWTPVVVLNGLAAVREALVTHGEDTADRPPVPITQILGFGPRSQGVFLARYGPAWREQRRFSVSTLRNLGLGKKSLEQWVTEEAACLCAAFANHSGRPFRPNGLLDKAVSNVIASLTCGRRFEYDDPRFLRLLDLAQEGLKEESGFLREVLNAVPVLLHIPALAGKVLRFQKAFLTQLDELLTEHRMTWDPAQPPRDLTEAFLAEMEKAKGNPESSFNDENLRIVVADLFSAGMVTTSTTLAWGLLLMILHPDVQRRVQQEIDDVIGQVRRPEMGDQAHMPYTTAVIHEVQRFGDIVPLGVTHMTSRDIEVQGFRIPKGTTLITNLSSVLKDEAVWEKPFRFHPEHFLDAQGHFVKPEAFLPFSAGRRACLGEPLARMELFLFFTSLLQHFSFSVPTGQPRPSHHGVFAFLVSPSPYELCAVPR

[9] = molecular target: T4, Cytochrome P450 11B2, mitochondrial (Homo sapiens, UniProt P19099); test: Inhibition of human CYP11B2-CLE9 expressed in Chinese hamster V79 cells using 11-deoxycorticosterone as substrate preincubated for 1 hr followed by substrate addition measured for 3 hrs by HTRF assay; type: cell-based
T4 sequence (P19099 whole entry): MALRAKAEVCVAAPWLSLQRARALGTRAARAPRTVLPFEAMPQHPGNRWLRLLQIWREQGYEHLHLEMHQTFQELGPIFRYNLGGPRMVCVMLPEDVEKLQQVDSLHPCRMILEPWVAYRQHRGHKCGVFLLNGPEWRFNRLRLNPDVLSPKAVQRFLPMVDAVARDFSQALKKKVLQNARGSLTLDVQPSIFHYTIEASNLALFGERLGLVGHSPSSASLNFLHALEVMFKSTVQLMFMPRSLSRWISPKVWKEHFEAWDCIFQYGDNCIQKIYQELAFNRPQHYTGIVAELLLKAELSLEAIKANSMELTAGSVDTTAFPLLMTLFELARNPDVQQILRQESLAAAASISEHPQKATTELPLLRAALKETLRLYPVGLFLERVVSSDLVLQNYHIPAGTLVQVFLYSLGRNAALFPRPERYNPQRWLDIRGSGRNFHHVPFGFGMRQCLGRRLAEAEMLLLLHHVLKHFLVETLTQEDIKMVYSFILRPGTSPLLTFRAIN

[10] = Oral bioavailability in Sprague-Dawley rat at 2 mg/kg administered via gavage by LC-MS/MS analysis; type: ADME, organism-based; conditions: in vivo
[11] = Selectivity ratio of IC50 for hepatic CYP2C9 (unknown origin) to IC50 for human CYP11B2-CLE9 expressed in Chinese hamster V79 cells
[12] = test system: Rattus norvegicus; test: Dose normalized AUC in Sprague-Dawley rat at 2 mg/kg, po administered via gavage by LC-MS/MS analysis; type: ADME, organism-based; conditions: in vivo

pIC50 [1]: < 5.00
pIC50 [2]: < 5.00
pIC50 [3]: 4.37
pIC50 [5]: 8.66
Vd [6]: 6.3 L/kg
pIC50 [8]: 5.55
pIC50 [9]: 8.65 to 8.66
bioavailability [10]: 28%
AUC/dose [12]: 0.85 µM·kg·h/mg
SMILES: CC(C)(O)c1cncc(-n2ncc3c(C(F)(F)F)cccc32)c1
Ratio IC50 [4]: 44
Ratio IC50 [7]: >1000
Ratio IC50 [11]: >4000
